pIC50: −log10 of the molar value. Read-outs that look alike come from different tables or passages of the source. Starred links: 1 amine or outer side, 2 acyl side, 3 side chain; linkers in the order of their positions; H or OH if unused. Positions of bridges follow the written chain, without caps; N, C: chain ends. Non-standard residues stand in square brackets, D forms with d. Residues, ends and D or L forms follow the SMILES beside them. Chains are numbered I, II in the order given. Actinocin(9to1) = Cc1c2oc3c(C)ccc(C(=O)[*:1])c3nc-2c(C(=O)[*:2])c(N)c1=O; NMeV = CN[C@H](C(=O)O)C(C)C; Sar = CNCC(=O)O
Tests used:
mouse = details: cited from earlier work
cat = details: cited from earlier work
rat = details: cited from earlier work
[1] = test system: Hela cervical cancer cells; test: MTT cytotoxicity assay, Hela cervical cancer cells; assay type: cell-based; details: Homo sapiens, mean of three determinations, read-out: 50% growth inhibition concentration (1050)
Protocol: The cytotoxicity of dactinomycin incorporated in PLGA conjugated with rAFP was tested with Hela cervical cancer cells. It is recognized that the use of PLGA as the controlled release polymer system is particularly suitable for the intent of the present invention because PLGA is well known for its safety in clinic. The Hela cells were doused with both dactinomycin in bulk. MTT assay was then performed to quantify the inhibitory concentration. […] 1050 was calculated from the cell viability data as the drug concentration in which cell growth was inhibited by 50%.

[2] = test system: lymphocyte of an average healthy person; test: Dose-dependent survival of lymphocytes of a healthy person; assay type: cell-based; details: Homo sapiens, read-out: 50% growth inhibition concentration
From the text: Each value depicted in FIGS. 1A and 1B is the mean of three determinations with coefficient of variation less than 20%.

frog = details: intravenous injection; cited from earlier work
pigeon = details: intravenous injection; cited from earlier work

## C[C@]12CC[C@H](O)C[C@H]1CC[C@@H]1[C@@H]2CC[C@]2(C)[C@@H](c3ccc(=O)oc3)CC[C@]12O [bufalin]
mouse; mouse, intravenous
  LD50 intravenous: 0.74 mg/kg
cat
  LD50 intravenous: 0.14 mg/kg

## Cc1c2oc3c(C)ccc(C(=O)N[C@@H]4C(=O)N[C@H](C(C)C)C(=O)N5CCC[C@H]5C(=O)N(C)CC(=O)N(C)[C@@H](C(C)C)C(=O)O[C@@H]4C)c3nc-2c(C(=O)N[C@@H]2C(=O)N[C@H](C(C)C)C(=O)N3CCC[C@H]3C(=O)N(C)CC(=O)N(C)[C@@H](C(C)C)C(=O)O[C@@H]2C)c(N)c1=O [dactinomycin in bulk, Dactinomycin] (I: T[dV]P[Sar][NMeV] / II: T[dV]P[Sar][NMeV]; ester I:1-I:C, II:1-II:C; linker I:N-II:N via Actinocin(9to1))
mouse; mice, intravenous 700 mcg/kg
  lethal dose as multiple of maximum recommended daily human dose (body surface area basis): 3.8 times
mouse; mice, intravenous
  lethal intravenous dose: 0.7 mg/kg
mouse; mouse, oral
  oral LD50: 7.8 mg/kg
rat; rat, oral
  oral LD50: 7.2 mg/kg
rat; rats, intravenous 500 mcg/kg
  lethal dose as multiple of maximum recommended daily human dose (body surface area basis): 5.4 times
rat; rats, intravenous
  lethal intravenous dose: 0.5 mg/kg
[1]
  pIC50: 8.77
[2]
  pIC50: 7.62

## C[C@H]1O[C@@H](O[C@H]2[C@@H](O)C[C@H](O[C@H]3[C@@H](O)C[C@H](O[C@H]4CC[C@@]5(C)[C@H](CC[C@@H]6[C@@H]5CC[C@]5(C)[C@@H](C7=CC(=O)OC7)CC[C@]65O)C4)O[C@@H]3C)O[C@@H]2C)C[C@H](O)[C@@H]1O [digitoxin]
mouse; mouse, intravenous injection
  LD50 intravenous: 4.1 mg/kg
frog
  LD50 intravenous: 0.73 mg/kg
pigeon
  LD50 intravenous: 0.32 mg/kg

## CN(Cc1cnc2nc(N)nc(N)c2n1)c1ccc(C(=O)N[C@@H](CCC(=O)O)C(=O)O)cc1 [methotrexate]
rat; rats, intravenous
  LD50 intravenous: 14 mg/kg body weight

## COc1cc2c(Nc3ccc(Br)cc3F)ncnc2cc1OCC1CCN(C)CC1 [vandetanib]
rat; rats, intravenous
  LD50 intravenous: 17-41 mg/kg body weight

Reference: patent publication US20150141414A1, “Formulation of Stable Recombinant Alpha-Fetoprotein Conjugated with Anti-Tumor Substance in Target-Delivery System for Treatment of Cancer and Autoimmune Disease” (priority 2013, published 2015)
